From patent US20230150921A1, “PHENOLIC ACID LIPID BASED CATIONIC LIPIDS” (Translate Bio, Inc., priority 2020, published 2023)

assay: Characterisation of lipid nanoparticle formulations (size, PDI, mRNA encapsulation); assay type: physicochemical; details: lipid nanoparticle with FFL mRNA; Process A; Cationic Lipid:DMG-PEG2000:Cholesterol:DOPE 40:5:25:30 mol%; N/P 4
Procedure: One exemplary process for lipid nanoparticle formulation is Process A of WO 2018/089801 (see, e.g., Example 1 and FIG. 1 of WO 2018/089801). Process A (“A”) relates to a conventional method of encapsulating mRNA by mixing mRNA with a mixture of lipids, without first pre-forming the lipids into lipid nanoparticles. In an exemplary process, an ethanol lipid solution and an aqueous buffered solution of mRNA were prepared separately. A solution of mixture of lipids (cationic lipid, helper lipids, zwitterionic lipids, PEG lipids etc.) was prepared by dissolving lipids in ethanol. The mRNA solution was prepared by dissolving the mRNA in citrate buffer. The mixtures were then both heated to 65° C. prior to mixing. Then, these two solutions were mixed using a pump system. In some instances, the two solutions were mixed using a gear pump system. In certain embodiments, the two solutions were mixing using a ‘T’ junction (or “Y” junction). The mixture was then purified by diafiltration with a TFF process. The resultant formulation concentrated and stored at 2-8° C. until further use. A second exemplary process for lipid nanoparticle formulation is Process B of WO 2018/089801 (see, e.g., Example 2 and the FIGURE of WO 2018/089801). Process B (“B”) refers to a process of encapsulating messenger RNA (mRNA) by mixing pre-formed lipid nanoparticles with mRNA. A range of different conditions, such as varying temperatures (i.e., heating or not heating the mixture), buffers, and concentrations, may be employed in Process B. In an exemplary process, lipids dissolved in ethanol and citrate buffer were mixed using a pump system. […] The resultant formulation mixture was empty lipid nanoparticles in citrate buffer containing alcohol. The formulation was then subjected to a TFF purification process wherein buffer exchange occurred. The resulting suspension of pre-formed empty lipid nanoparticles was then mixed with mRNA using a pump system. […] The lipid nanoparticle formulations of Table 5 were prepared by either Process A or B. Each formulation comprised mRNA encoding firefly luciferase protein (FFL mRNA) and lipids (Cationic Lipid: DMG-PEG2000; Cholesterol: DOPE) in the mol % ratios set forth in Table 5.

Row | Encapsulation % | PDI | Size (nm) | Compound
1 | 94% | 0.235 | 47.6 nm | CCCCCCCCC(O)CN(CCCC(=O)Oc1c(OC)cc(C(=O)OCCCN(C)C)cc1OC)CC(O)CCCCCCCC (stereo not drawn) [Compound 1]
2 | 94% | 0.251 | 48.9 nm | CCCCCCCCCCC(O)CN(CCCC(=O)Oc1c(OC)cc(C(=O)OCCCN(C)C)cc1OC)CC(O)CCCCCCCCCC (stereo not drawn) [Compound 2]
3 | 91% | 0.198 | 41.4 nm | CCCCCCCCCCC(O)CN(CCCCC(=O)Oc1c(OC)cc(C(=O)OCCCN(C)C)cc1OC)CC(O)CCCCCCCCCC (stereo not drawn) [Compound 4]
4 | 97% | 0.249 | 48.4 nm | CCCCCCCCCCCCC(O)CN(CCCC(=O)Oc1c(OC)cc(C(=O)OCCCN(C)C)cc1OC)CC(O)CCCCCCCCCCCC (stereo not drawn) [Compound 5]
5 | 95% | 0.429 | 64.2 nm | CCCCCCC/C=C\C/C=C\CCCCC(O)CN(CCCC(=O)Oc1c(OC)cc(C(=O)OCCCN(C)C)cc1OC)CC(O)CCCC/C=C\C/C=C\CCCCCCC (stereo not drawn) [Compound 7]
6 | 95% | 0.193 | 43.3 nm | CCCCCCCCCCC(O)CN(CCCC(=O)Oc1c(OC)cc(/C=C/C(=O)OCCCN(C)C)cc1OC)CC(O)CCCCCCCCCC (stereo not drawn) [Compound 8]
7 | 94% | 0.213 | 43.3 nm | CCCCCCCCCCC(O)CN(CCCCC(=O)Oc1c(OC)cc(/C=C/C(=O)OCCCN(C)C)cc1OC)CC(O)CCCCCCCCCC (stereo not drawn) [Compound 10]
8 | 98% | 0.214 | 44.0 nm | CCCCCCCCCCCCC(O)CN(CCCCC(=O)Oc1c(OC)cc(/C=C/C(=O)OCCCN(C)C)cc1OC)CC(O)CCCCCCCCCCCC (stereo not drawn) [Compound 11]
9 | 96% | 0.173 | 65.1 nm | CCCCCCCCCCC(O)CN(CCCC(=O)Oc1ccc(C(=O)OCCCN(C)C)cc1CC)CC(O)CCCCCCCCCC (stereo not drawn) [Compound 12]

Row | Compound | Encapsulation % | PDI | Size (nm)
10 | CCCCCCCCC(O)CN(CCCCC(=O)Oc1c(OC)cc(C(=O)OCCCN(C)C)cc1OC)CC(O)CCCCCCCC (stereo not drawn) [Compound 3] | 89% | 0.207 | 40.3 nm
11 | CCCCCCCCCCCCC(O)CN(CCCCC(=O)Oc1c(OC)cc(C(=O)OCCCN(C)C)cc1OC)CC(O)CCCCCCCCCCCC (stereo not drawn) [Compound 6] | 73% | 0.208 | 47.0 nm
12 | CCCCCCCCC(O)CN(CCCCC(=O)Oc1c(OC)cc(C(=O)OCCCN(C)C)cc1OC)CC(O)CCCCCCCC (stereo not drawn) [Compound 9] | 79% | 0.213 | 42.3 nm
